17 compounds from PubChem BioAssay (NCI) can be followed below.

Among the test systems are HS 578T breast; SK-MEL-28 melanoma; T-47D breast; CCRF-CEM leukemia; SK-OV-3 ovarian; EKVX NSCLC; KM12 colon.
Holding throughout (experiment): DTP human tumour cell line panel, 48 h

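Briefly, cells in 96-well plates were exposed to five compound concentrations for 48 h, and endpoints were estimated by linear interpolation. TGI: concentration producing complete growth inhibition.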

Take `CC(C)C(=O)Cc1ccc2ccccc2n1`: the TGI with HS 578T breast, in the experiment on SK-MEL-28 melanoma, in the experiment on T-47D breast, in the experiment on CCRF-CEM leukemia, in the experiment with SK-OV-3 ovarian and in the experiment on EKVX NSCLC was greater than 100 µM each time. Also, the TGI with KM12 colon is greater than 100 µM.
As for `C=CCN(c1cc(O)c2c(c(C)cn2S(=O)(=O)c2ccccc2)c1[N+](=O)[O-])S(C)(=O)=O`, the total growth inhibition concentration (TGI) with HS 578T breast, in the experiment with SK-MEL-28 melanoma, in the experiment with T-47D breast, with CCRF-CEM leukemia, in the experiment with SK-OV-3 ovarian and in the experiment on EKVX NSCLC was greater than 100 µM each time. In the experiment on KM12 colon, this compound returned a total growth inhibition concentration (TGI) greater than 100 µM.
With `O=c1oc2ccccc2c(-c2ccc(O)cc2)c1Oc1ccccc1`, the concentration for total growth inhibition (TGI) in the experiment on HS 578T breast was 18.2 µM; in the experiment on SK-MEL-28 melanoma, greater than 66.1 µM; in the experiment on T-47D breast it was greater than 100 µM; in the experiment with CCRF-CEM leukemia it was greater than 100 µM; in the experiment on SK-OV-3 ovarian, greater than 100 µM; with EKVX NSCLC, 49.9 µM. For the same compound, the total growth inhibition concentration (TGI) in the experiment on KM12 colon is greater than 68.5 µM.
Consider `CC1OC(OC2C(OC(=O)[C@]34CCC(C)(C)C[C@H]3C3=CC[C@@H]5[C@@]6(C)CC[C@H](OC7OC(CO)C(O)C(O)C7OC7OC(CO)C(O)C(O)C7O)C(C)(C)[C@@H]6CC[C@@]5(C)[C@]3(C)CC4)OCC(O)C2O)C(O)C(O)C1OC1OCC(O)C(O)C1O` (stereo partly drawn), for which the TGI in the experiment on HS 578T breast was determined as 40.2 µM; in the experiment on SK-MEL-28 melanoma, 6.04 µM; with T-47D breast, 42.3 µM; with CCRF-CEM leukemia, 42.3 µM; in the experiment with SK-OV-3 ovarian, 31.9 µM; in the experiment on EKVX NSCLC it was 18.6 µM. For the same compound, the concentration for total growth inhibition (TGI) in the experiment with KM12 colon was determined as 21.8 µM.
In the case of `C#CCN(C(=O)C(F)(F)F)C(/C=C\C(=O)OC)(C(=O)OCC)C(=O)OCC`, the TGI in the experiment on HS 578T breast, with SK-MEL-28 melanoma, with T-47D breast, with CCRF-CEM leukemia, with SK-OV-3 ovarian and with EKVX NSCLC was greater than 100 µM each time. Besides, the TGI in the experiment on KM12 colon was greater than 100 µM.
Turning to `O=C1CSC(c2cc3cc(Br)ccc3nc2Cl)N1c1ccc(Cl)cc1` (stereo not drawn), the total growth inhibition concentration (TGI) was greater than 100 µM in the experiment on HS 578T breast; greater than 100 µM with SK-MEL-28 melanoma; greater than 100 µM in the experiment with T-47D breast; 97.6 µM in the experiment on CCRF-CEM leukemia; greater than 100 µM in the experiment on SK-OV-3 ovarian; greater than 100 µM in the experiment with EKVX NSCLC. In the experiment on KM12 colon, this compound had a total growth inhibition concentration (TGI) of 47.6 µM.
Regarding `N/C(CCSCCSCC/C(N)=N\O)=N\O`, the TGI in the experiment with HS 578T breast, with SK-MEL-28 melanoma, with T-47D breast, in the experiment on CCRF-CEM leukemia, in the experiment on SK-OV-3 ovarian and with EKVX NSCLC was greater than 100 µM in each case. The same compound registered a TGI with KM12 colon greater than 100 µM.
On to `CC(=O)Oc1ccc(-c2nnc(-c3ccc(OC(C)=O)cc3)nn2)cc1`, for which the TGI with HS 578T breast, with SK-MEL-28 melanoma, in the experiment on T-47D breast, in the experiment on CCRF-CEM leukemia, with SK-OV-3 ovarian and with EKVX NSCLC was greater than 100 µM throughout. Besides, the concentration for total growth inhibition (TGI) in the experiment with KM12 colon was greater than 100 µM.
Take `O=C(/C=C/c1ccccc1)CCN1CCCCC1`: the total growth inhibition concentration (TGI) with HS 578T breast is greater than 100 µM; in the experiment on SK-MEL-28 melanoma, 58.5 µM; in the experiment with T-47D breast, greater than 100 µM; in the experiment on CCRF-CEM leukemia, greater than 100 µM; in the experiment on SK-OV-3 ovarian it was greater than 100 µM; in the experiment on EKVX NSCLC, greater than 100 µM. Moreover, the TGI in the experiment on KM12 colon is greater than 100 µM.
On to `COC(=O)/C(=N\N)C(C(=O)C(=O)Nc1cc(Cl)ccc1Cl)c1nc2ccc([N+](=O)[O-])cc2[nH]c1=O` (stereo not drawn), for which the TGI with HS 578T breast, with SK-MEL-28 melanoma, with T-47D breast, in the experiment on CCRF-CEM leukemia, in the experiment with SK-OV-3 ovarian and with EKVX NSCLC was greater than 100 µM each time. In the experiment on KM12 colon, this compound came in with a total growth inhibition concentration (TGI) greater than 100 µM.
Take `O=C1C(Cl)=CC2(C=C1Cl)CCN=c1c(O)c3c(c(O)c12)=NC=N3`: the TGI with HS 578T breast, in the experiment on SK-MEL-28 melanoma, with T-47D breast, in the experiment on CCRF-CEM leukemia, in the experiment with SK-OV-3 ovarian and with EKVX NSCLC was greater than 100 µM throughout. Moreover, in the experiment with KM12 colon, the TGI was greater than 100 µM.
`N/C(=N\N=C\c1nc2ccccc2o1)c1cnccn1`: the TGI in the experiment with HS 578T breast, in the experiment with SK-MEL-28 melanoma, in the experiment with T-47D breast, in the experiment with CCRF-CEM leukemia, with SK-OV-3 ovarian and with EKVX NSCLC was greater than 100 µM in each case. Moreover, the TGI in the experiment with KM12 colon was greater than 100 µM.
Take `CO/C(N)=C(\C#N)N=Cc1ccsc1`: the concentration for total growth inhibition (TGI) in the experiment with HS 578T breast is greater than 100 µM; in the experiment on SK-MEL-28 melanoma, greater than 100 µM; with T-47D breast it was greater than 100 µM; in the experiment on CCRF-CEM leukemia it was 81 µM; in the experiment on SK-OV-3 ovarian, greater than 100 µM; in the experiment with EKVX NSCLC, greater than 100 µM. This compound yielded a TGI with KM12 colon greater than 100 µM.
Consider `CCOC(=O)c1nc2ccc(C(F)(F)F)cc2nc1Oc1ccc(OC)cc1`, for which the concentration for total growth inhibition (TGI) in the experiment with HS 578T breast, in the experiment with SK-MEL-28 melanoma, in the experiment with T-47D breast, in the experiment with CCRF-CEM leukemia, in the experiment with SK-OV-3 ovarian and in the experiment on EKVX NSCLC was greater than 100 µM throughout. Further, the total growth inhibition concentration (TGI) in the experiment on KM12 colon was greater than 100 µM.
Regarding `O=C(OC1OC2COC(=O)c3cc(O)c(O)c(O)c3-c3c(cc(O)c(O)c3O)C(=O)OC3C2OC(=O)[C@@]24CC(=O)[C@@](O)(OC25C(=O)O[C@H]2[C@@H](O)CO[C@@]25O)C2(O)Oc5c(O)c(O)cc(c5C24)C(=O)OC13)c1cc(O)c(O)c(O)c1` (stereo partly drawn), the TGI in the experiment with HS 578T breast is greater than 100 µM; with SK-MEL-28 melanoma it was greater than 100 µM; in the experiment on T-47D breast, greater than 100 µM; in the experiment on CCRF-CEM leukemia, 87.8 µM; in the experiment with SK-OV-3 ovarian it was greater than 100 µM; in the experiment on EKVX NSCLC, greater than 100 µM. This compound also had a TGI with KM12 colon of 68.6 µM.
With `c1ccc(C(NC2=NCCO2)C2CC2)cc1` (stereo not drawn), the TGI in the experiment with HS 578T breast, with SK-MEL-28 melanoma, in the experiment on T-47D breast, with SK-OV-3 ovarian, with EKVX NSCLC and with KM12 colon was greater than 100 µM in each case.
As to `CC1(c2ccc(Cl)cc2)C=C(c2ccc(Cl)cc2)C(C#N)=C(C(C#N)C#N)N1` (stereo not drawn), the TGI with HS 578T breast is 29.4 µM; in the experiment with SK-MEL-28 melanoma, 66.6 µM; in the experiment on T-47D breast, 46.9 µM; in the experiment with CCRF-CEM leukemia it was greater than 100 µM; in the experiment with SK-OV-3 ovarian, 30.8 µM; in the experiment with EKVX NSCLC it was 31.3 µM. Further, the TGI in the experiment with KM12 colon is 38.6 µM.
